In patent publication US20170217982A1, “Compound isolated from Pseudolysimachion rotundum var. subintegrum, the composition comprising the same for treating allergic disease, inflammatory disease, asthma or chronic obstructive pulmonary disease and the use thereof” (YUNGJIN PHARMACEUTICAL CO., LTD, priority 2014, published 2017):

Test system: COPD induced mice
Test: Anti-COPD effect in cigarette smoke + LPS COPD mouse model
Type: in vivo, C57BL/6N mouse
Conditions: 10 mg/kg p.o.
Experimental: In order to determine the anti-COPD effect of inventive compounds in COPD animal model, following test was performed by using COPD induced mice as disclosed in the literature (Bhaysar, T. et al., J. Chronic Obstr. […]. Dis., 2008, 3, 477-481). Specific pathogen-free male C57BL/6N mouse (about 22-24 g), aged 6 weeks, which were routinely screened serologically for relevant respiratory pathogens, were purchased from Koatech Co. (koatech.co.kr, Seoul, Korea) and bred allowing to access freely to feed (antibiotic free, Samyang Oil & Feed Corp., Korea) and water in breeding room controlling the temperature of 22±2° C., and humidity of 55±15% at the light-dark cycle for 12 hours and acclimated with the experimental environment for 1 week. 2 kinds of test samples, […] ingredient: Roflumilast, 10 mg/kg) were dissolved in 0.5% sodium carboxymethyl cellulose ([…], Sigma-Aldrich, USA) and used as test samples. KS534, and Rolflumilast (ROF 11-492, HETERO, India) were orally administrated to the mice, 1 hour before prior the intratracheal instillation (i.t.). 3R4F Kentuchy Reference Cigarettes ([…], USA) was used as a standard cigarette for generating a cigarette smoke. The cigarette containing 9.4 mg of tar, 11 mg of TPM (total particle matter) and 12 mg of carbon monooxide per piece, was used after harmonizing with the temperature of 22±1° C. and humidity of 60±2% after opening for 48-72 hrs. The exposure of cigarette smoke was performed by using a cigarette smoke generator (DBL Co. Ltd., dhbiolink.com, Korea). The mice were divided into five groups: normal (NC), COPD (cigarette smoke with LPS intranasal instillation), Rof (10 mg/kg of roflumilast, p.o.+cigarette smoke with LPS intranasal instillation), and KS534-15 and 30 (15 mg/kg and 30 mg/kg of KS534, p.o.+cigarette smoke with LPS instillation, respectively). Exposure of cigarette smoke (one puff/min, 35 ml puff volume over 2 s, every 60 s, 8 cigarettes per day) was conducted using a cigarette smoke generator. The mice received 1 h of cigarette smoke exposure in an exposure chamber (50 cm×30 cm×30 cm) for 3 days. Roflumilast and piscroside C were administered to mice by oral lavage 1 h before cigarette smoke exposure for 3 days. LPS was intranasally instilled ([…] dissolved in 50 μL distilled water) under anesthesia 1 h after the final exposure to cigarette smoke. After the end of experiment, the blood, BALF, and pneumonocyte of each rat were isolated and collected to test. After finishing the experiment, rats were anaesthetized with Zoleti150 (3VX9, Virbac, France, p.o) and the blood was delivered through caudal veins. In order to isolate BALF from lung, the bronchus of right lung was ligated with suture and then performed to tracheostomy. IV-use catheter (16 GA, 3S-Cath, Dukwoo, Korea) was put into the bronchus, and both of bronchus and catheter (16 GA, 3S-Cath, Dukwoo, Korea) were fixed with suture. The injector containing 1 ml of DPBS 0.7 (Dubecco's phosphate-buffered saline, Invitrogen, USA) was connected thereto and DPBS was forced to circulate three times to isolate BALF. The right lung ligated with suture was isolated, fixed with 10% neutral formalin solution, and the remaining lung tissue was reserved in refrigerator at -70° C. The isolated BALF was centrifuged for 15 mins at 1500 rpm to prepare cell pellet and the supernatant was reserved in refrigerator at -70° C. for cytokine analysis. The cell pellet was suspended in DPBS, and the cell was attached to a slide glass using by cytospin centrifuge (CS03270047, Hanil, Korea). Diff-Quik staining (ZS1003, Sysmex, Japan) was performed and the cell was observed by optical microscopy (DM1000, Leica, German) to count the number of immunocyte in each test sample. The level of ROS in BALF isolated from the mice was determined by DCF-DA (dihydrodo chloro fluoresce indiacetate, 35854, Sigma-Aldrich, USA) and the final concentration of DCF-DA was adjusted to 20 μm in 200 μL to incubate 30 mins. […]

Compound: O=C(Nc1c(Cl)cncc1Cl)c1ccc(OC(F)F)c(OCC2CC2)c1 [Roflumilast, reference compound]
- level of proteins in BALF compared with COPD induced group (COPD mice): significant reduction
- reduced level of ROS in BALF comparing with COPD induced group (COPD mice): about 22.2%
- reduced level of neutrophils in BALF comparing with COPD induced group (COPD mice): about 21.1%
- invasion of the inflamed cells in lung tissue (histology) (COPD mice (FIG. 14)): significantly reduced
- level of IL-6 in BALF compared with COPD induced group (COPD mice, ELISA): significant reduction
- level of TNF-alpha in BALF compared with COPD induced group (COPD mice, ELISA): significant reduction
